Measured values from ChEMBL document CHEMBL5241092, “The antibacterial activity of fluoroquinolone derivatives: An update (2018-2021)” (2021).
Values after ≈ are worked out from the molar mass of the structure shown.

Legend:
Staphylococcus aureus [1] = assay: Antibacterial activity against methicillin resistant Staphylococcus aureus 1; assay type: functional
Staphylococcus aureus [2] = assay: Antibacterial activity against methicillin resistant Staphylococcus aureus 2; assay type: functional
Staphylococcus aureus [3] = assay: Antibacterial activity against Staphylococcus aureus; assay type: functional
Staphylococcus aureus [4] = assay: Antibacterial activity against methicillin resistant Staphylococcus aureus 3; assay type: functional
Staphylococcus aureus [5] = assay: Antibacterial activity against methicillin resistant Staphylococcus aureus; assay type: functional
Salmonella enteritidis = assay: Antibacterial activity against Salmonella enteritidis; assay type: functional, Salmonella enterica subsp. enterica serovar Enteritidis; conditions: Salmonella enterica
Escherichia coli [6] = assay: Antibacterial activity against Escherichia coli; assay type: functional
Pseudomonas aeruginosa [7] = assay: Antibacterial activity against Pseudomonas aeruginosa; assay type: functional
Staphylococcus aureus [8] = assay: Antibacterial activity against methicillin resistant Staphylococcus aureus reference strain; assay type: functional
Staphylococcus aureus [9] = assay: Antibacterial activity against methicillin resistant Staphylococcus aureus clinical strain; assay type: functional
Escherichia coli [10] = assay: Antibacterial activity against quinolone susceptible Escherichia coli; assay type: functional
Pseudomonas aeruginosa [11] = assay: Antibacterial activity against quinolone susceptible Pseudomonas aeruginosa; assay type: functional
Staphylococcus aureus [12] = assay: Potency index, ratio of levofloxacin MIC to test compound MIC for antibacterial activity against fluoroquinolone/methicillin resistant Staphylococcus aureus; assay type: functional
Staphylococcus aureus [13] = assay: Antibacterial activity against fluoroquinolone sensitive Staphylococcus aureus; assay type: functional
Bacillus subtilis = assay: Antibacterial activity against Bacillus subtilis; assay type: functional
[14] = system: Staphylococcus epidermidis; assay: Antibacterial activity against Staphylococcus epidermidis; assay type: functional
Clostridioides difficile = assay: Antibacterial activity against Clostridioides difficile; assay type: functional
Staphylococcus aureus [15] = assay: Antibacterial activity against fluoroquinolone/methicillin resistant Staphylococcus aureus; assay type: functional

Compound CCn1cc(C(=O)O)c(=O)c2cc(F)c(N3CCN(Cc4nnc(-c5ccccc5Cl)o4)CC3)cc21 has an MIC (Staphylococcus aureus [1]) of 0.25 µg/mL (≈ 0.488 µM), an MIC (Staphylococcus aureus [2]) of 0.25 µg/mL (≈ 0.488 µM) and an MIC (Staphylococcus aureus [3]) of 0.25 µg/mL (≈ 0.488 µM). It also gave an MIC (Staphylococcus aureus [4]) of 0.25 µg/mL (≈ 0.488 µM).
O=C(O)c1cn(-c2ccc(F)cc2)c2cc(N3CCN(Cc4nc5ccc(Cl)cc5c(=O)[nH]4)CC3)c(F)cc2c1=O showed an MIC (Staphylococcus aureus [3]) of 0.125 µg/mL (≈ 0.216 µM) and an MIC (Staphylococcus aureus [5]) of 0.125 µg/mL (≈ 0.216 µM).
In the case of CCn1cc(C(=O)O)c(=O)c2cc(F)c(N3CCN(C(=O)CN4C(=O)S/C(=C\c5ccccc5)C4=O)CC3)cc21, the MIC (Salmonella enteritidis) is reported as 0.5 µg/mL (≈ 0.886 µM), the MIC (Escherichia coli [6]) is reported as 0.5 µg/mL (≈ 0.886 µM) and the MIC (Pseudomonas aeruginosa [7]) is reported as 0.5 µg/mL (≈ 0.886 µM).
CCn1cc(C(=O)O)c(=O)c2cc(F)c(N3CCN(C(=O)CN4C(=O)S/C(=C\c5ccc(OC)cc5)C4=O)CC3)cc21 showed an MIC (Salmonella enteritidis) of 0.25 µg/mL (≈ 0.42 µM), an MIC (Escherichia coli [6]) of 0.25 µg/mL (≈ 0.42 µM) and an MIC (Pseudomonas aeruginosa [7]) of 0.25 µg/mL (≈ 0.42 µM).
CCn1cc(C(=O)O)c(=O)c2cc(F)c(N3CCN(Cc4nnc(-c5ccc(OC)cc5)o4)CC3)cc21 showed an MIC (Staphylococcus aureus [1]) of 0.25 µg/mL (≈ 0.493 µM), an MIC (Staphylococcus aureus [2]) of 0.25 µg/mL (≈ 0.493 µM) and an MIC (Staphylococcus aureus [3]) of 0.25 µg/mL (≈ 0.493 µM). It also gave an MIC (Staphylococcus aureus [4]) of 0.25 µg/mL (≈ 0.493 µM).
O=C(O)c1cn(C2CC2)c2cc(N3CCN(Cc4cc5ccccc5cc4O)CC3)c(F)cc2c1=O showed an MIC (Staphylococcus aureus [8]) of 0.08 µg/mL (≈ 0.164 µM) and an MIC (Staphylococcus aureus [9]) of 0.2 µg/mL (≈ 0.41 µM).
Compound CNC1CN(c2c(F)cc3c(=O)c(C(=O)O)cn(-c4cc(N)c(F)cc4CO)c3c2Cl)C1 has an MIC (Escherichia coli [10]) of 0.008 µg/mL (≈ 0.0172 µM) and an MIC (Pseudomonas aeruginosa [11]) of 0.008 µg/mL (≈ 0.0172 µM).
With COc1c(N2CCN(C(=O)Cn3cc(CN4C(=O)C(=O)c5cc(F)ccc54)nn3)C(C)C2)c(F)cc2c(=O)c(C(=O)O)cn(C3CC3)c12 (configuration not stated) the MIC (Staphylococcus aureus [1]) was ≤ 0.03 µg/mL, the MIC (Staphylococcus aureus [2]) was ≤ 0.03 µg/mL and the MIC (Staphylococcus aureus [3]) was ≤ 0.03 µg/mL. For the same compound, the MIC (Staphylococcus aureus [4]) was ≤ 0.03 µg/mL.
With C[C@H]1COc2c(N3C4CCC3CC(O)C4)c(F)cc3c(=O)c(C(=O)O)cn1c23 (some centres not stated) the Ratio (Staphylococcus aureus [12]) was 4 and the MIC (Staphylococcus aureus [13]) was ≤ 0.5 µg/mL.
CC(=O)C(C(C)=O)C(=O)c1cn(C2CC2)c2cc(N3CCN(/N=N/c4nc(C)cc(C)n4)CC3)c(F)cc2c1=O gave an MIC (Bacillus subtilis) of 0.015 µg/mL (≈ 0.0274 µM), an MIC [14] of 0.015 µg/mL (≈ 0.0274 µM) and an MIC (Staphylococcus aureus [3]) of 0.015 µg/mL (≈ 0.0274 µM).
Cc1c(-c2cnc(N)c(C#N)c2)c(F)cc2c(=O)c(C(=O)O)cn(C3CC3)c12 showed an MIC50 (Clostridioides difficile) of 0.125 µg/mL (≈ 0.33 µM) and an MIC90 (Clostridioides difficile) of 0.5 µg/mL (≈ 1.32 µM).
In the case of C[C@H]1COc2c(N3C4CCC3CC(OC(=O)CCl)C4)c(F)cc3c(=O)c(C(=O)O)cn1c23 (some centres not stated), the MIC (Staphylococcus aureus [15]) is reported as ≤ 0.5 µg/mL, the Ratio (Staphylococcus aureus [12]) is reported as 4 and the MIC (Staphylococcus aureus [13]) is reported as ≤ 0.5 µg/mL.
CCOc1cc(OCC)nc(/N=N/N2CCN(c3cc4c(cc3F)c(=O)c(C(=O)C(C(=O)OC)C(=O)OC)cn4C3CC3)CC2)n1 gave an MIC (Bacillus subtilis) of 0.015 µg/mL (≈ 0.0235 µM), an MIC [14] of 0.015 µg/mL (≈ 0.0235 µM) and an MIC (Staphylococcus aureus [3]) of 0.015 µg/mL (≈ 0.0235 µM).
CCn1cc(C(=O)O)c(=O)c2cc(F)c(N3CCN(C(=O)CN4C(=O)S/C(=C\c5ccc(Cl)cc5Cl)C4=O)CC3)cc21 showed an MIC (Salmonella enteritidis) of 0.25 µg/mL (≈ 0.395 µM), an MIC (Escherichia coli [6]) of 0.25 µg/mL (≈ 0.395 µM) and an MIC (Pseudomonas aeruginosa [7]) of 0.25 µg/mL (≈ 0.395 µM).
CCn1cc(C(=O)O)c(=O)c2cc(F)c(N3CCN(C(=O)CN4C(=O)S/C(=C\c5ccc(F)cc5)C4=O)CC3)cc21 gave an MIC (Salmonella enteritidis) of 0.25 µg/mL (≈ 0.429 µM), an MIC (Escherichia coli [6]) of 0.25 µg/mL (≈ 0.429 µM) and an MIC (Pseudomonas aeruginosa [7]) of 0.25 µg/mL (≈ 0.429 µM).
CC(Cl)C(=O)OC1CC2CCC(C1)N2c1c(F)cc2c(=O)c(C(=O)O)cn3c2c1OC[C@@H]3C (some centres not stated) was tested, and the MIC (Staphylococcus aureus [15]) was ≤ 0.5 µg/mL, the Ratio (Staphylococcus aureus [12]) was 4 and the MIC (Staphylococcus aureus [13]) was ≤ 0.5 µg/mL.
CCn1cc(C(=O)O)c(=O)c2cc(F)c(N3CCN(C(=O)CN4C(=O)S/C(=C\c5ccc(Cl)cc5)C4=O)CC3)cc21 showed an MIC (Salmonella enteritidis) of 0.25 µg/mL (≈ 0.417 µM), an MIC (Escherichia coli [6]) of 0.25 µg/mL (≈ 0.417 µM) and an MIC (Pseudomonas aeruginosa [7]) of 0.25 µg/mL (≈ 0.417 µM).
With CCn1cc(C(=O)O)c(=O)c2cc(F)c(N3CCN(C(=O)CN4C(=O)S/C(=C\c5ccc(N(C)C)cc5)C4=O)CC3)cc21 the MIC (Salmonella enteritidis) was 0.25 µg/mL (≈ 0.411 µM), the MIC (Escherichia coli [6]) was 0.25 µg/mL (≈ 0.411 µM) and the MIC (Pseudomonas aeruginosa [7]) was 0.25 µg/mL (≈ 0.411 µM).
